Laboratory results taken from ChEMBL document CHEMBL1201862, “PubChem BioAssay data set” (2004).
Active and inactive are the calls of the source.

Columns and labels:
[1] = target: T1, Heat shock factor protein 1 (Mus musculus, UniProt P38532); assay: inhibition of MG132-induced HSE-luciferase signal, confirmation, cell-based, NIH3T3, luminescence, dose retest (AID 2382); format: functional;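 also: NIH3T3 fibroblasts with HSF1-driven luciferase reporter stressed by proteasome inhibitor MG132; luminescence from HSF1-driven luciferase expression after 8 hours of MG132 stress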
T1 sequence (P38532 whole entry): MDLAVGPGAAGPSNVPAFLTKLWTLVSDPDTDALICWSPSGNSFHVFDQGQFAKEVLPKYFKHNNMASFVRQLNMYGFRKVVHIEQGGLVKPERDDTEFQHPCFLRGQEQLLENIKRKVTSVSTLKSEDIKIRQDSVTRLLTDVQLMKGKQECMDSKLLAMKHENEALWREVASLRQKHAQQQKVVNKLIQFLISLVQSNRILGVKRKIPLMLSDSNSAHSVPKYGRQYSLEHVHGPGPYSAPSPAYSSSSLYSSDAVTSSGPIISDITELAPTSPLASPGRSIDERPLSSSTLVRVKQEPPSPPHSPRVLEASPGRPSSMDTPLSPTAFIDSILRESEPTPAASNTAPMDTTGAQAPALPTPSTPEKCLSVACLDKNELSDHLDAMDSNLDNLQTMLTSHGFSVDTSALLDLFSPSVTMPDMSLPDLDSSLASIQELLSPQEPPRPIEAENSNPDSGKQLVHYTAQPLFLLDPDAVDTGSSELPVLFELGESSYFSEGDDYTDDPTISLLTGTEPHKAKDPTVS

[2] = target: T2, Apoptotic protease-activating factor 1 (Homo sapiens, UniProt O14727); assay: SAR analysis of small molecule Activators of Apaf-1 in a Fluorescent assay.; format: functional; conditions: read-out: EC50_Mean;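 also: caspase-3 cleavage of fluorogenic Rh110 DEVD substrate downstream of apoptosome activation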
T2 sequence (O14727 whole entry): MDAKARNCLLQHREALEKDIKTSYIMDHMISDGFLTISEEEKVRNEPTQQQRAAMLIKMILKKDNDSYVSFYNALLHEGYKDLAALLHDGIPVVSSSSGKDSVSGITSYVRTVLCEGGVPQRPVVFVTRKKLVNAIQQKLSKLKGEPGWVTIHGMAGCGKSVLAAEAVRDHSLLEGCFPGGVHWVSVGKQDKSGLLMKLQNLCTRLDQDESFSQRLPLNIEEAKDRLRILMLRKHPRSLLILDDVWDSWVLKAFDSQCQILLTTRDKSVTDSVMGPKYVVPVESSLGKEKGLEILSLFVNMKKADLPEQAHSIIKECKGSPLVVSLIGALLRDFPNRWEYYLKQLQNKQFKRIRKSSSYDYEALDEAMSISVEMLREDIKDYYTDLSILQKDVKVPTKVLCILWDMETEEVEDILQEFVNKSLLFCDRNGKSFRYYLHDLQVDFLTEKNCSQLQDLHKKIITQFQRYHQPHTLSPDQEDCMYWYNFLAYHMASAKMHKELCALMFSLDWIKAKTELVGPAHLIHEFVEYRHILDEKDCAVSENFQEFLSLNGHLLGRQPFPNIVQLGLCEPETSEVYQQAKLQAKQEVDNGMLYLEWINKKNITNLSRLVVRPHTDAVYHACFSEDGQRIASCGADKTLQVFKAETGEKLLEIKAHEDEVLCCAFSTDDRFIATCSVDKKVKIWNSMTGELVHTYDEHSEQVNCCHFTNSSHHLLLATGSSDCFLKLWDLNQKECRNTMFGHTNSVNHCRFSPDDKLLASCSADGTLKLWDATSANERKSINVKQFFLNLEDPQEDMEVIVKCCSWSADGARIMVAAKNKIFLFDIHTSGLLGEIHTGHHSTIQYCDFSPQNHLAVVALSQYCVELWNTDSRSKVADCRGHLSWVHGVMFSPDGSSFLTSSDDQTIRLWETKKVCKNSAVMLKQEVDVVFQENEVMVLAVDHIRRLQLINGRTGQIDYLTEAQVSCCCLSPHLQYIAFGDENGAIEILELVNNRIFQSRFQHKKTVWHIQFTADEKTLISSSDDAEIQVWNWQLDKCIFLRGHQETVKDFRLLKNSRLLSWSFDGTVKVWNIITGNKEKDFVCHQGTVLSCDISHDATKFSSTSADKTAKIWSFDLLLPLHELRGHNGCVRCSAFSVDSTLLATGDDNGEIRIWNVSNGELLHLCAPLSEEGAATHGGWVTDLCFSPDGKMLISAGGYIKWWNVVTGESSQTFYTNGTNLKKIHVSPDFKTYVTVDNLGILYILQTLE

[3] = target: T3, Polyadenylate-binding protein 1 (Homo sapiens, UniProt P11940); assay: PABP1 MLLE–PAM2 interaction inhibitors, dose response, miRNA deadenylation inhibitor project, biochemical, fluorescence polarization, Cy5-PAM2 peptide, secondary (AID 602260); format: functional; conditions: read-out: IC50_Mean
[4] = target: Latent membrane protein 1 (Human herpesvirus 4 (strain B95-8), UniProt P03230); assay: TES1-eGFP NF-kB reporter inhibition versus Tet-On dsRED, dose response, selectivity assay for LMP1 NF-kB inhibitor project, imaging, HEK293T, dual-color eGFP/dsRED, cherry-picks (AID 588398); format: functional, cell-based
HEK293 [5] = assay: inhibitors of LMP1-driven NF-kB reporter, dose response, cell-based, HEK293, luciferase, cherry-pick (AID 588343); format: functional; conditions: Homo sapiens
cells = format: functional
[6] = THP-1 cell cytotoxicity, dose response, cytotoxicity control for non-replicating M. tuberculosis project (AID 489025); format: functional
[7] = target: T3, Polyadenylate-binding protein 1; assay: PABP1 MLLE–PAM2 binding inhibitor potency, dose response, biochemical, fluorescence polarization, FITC-PAM2 peptide (AID 602259); format: functional; conditions: read-out: IC50_Mean
HEK293 [8] = assay: SAR Analysis of small molecule inhibitors of T-cell specific antigen receptor-induced NF-kB activation in a HEK-293T cell line using a luminescence assay - Set 2. [Related pubchem assays (depositor defined):AID435003, AID435012, AID489026]; format: functional, cell-based; conditions: Homo sapiens
Jurkat [9] = assay: SAR Analysis of small molecule inhibitors of T-cell specific antigen receptor-induced NF-kB activation in a Jurkat cell line using a luminescence assay - Set 2. [Related pubchem assays (depositor defined):AID435003, AID435012, AID465]; format: functional, cell-based; conditions: Homo sapiens
HEK293 [10] = assay: cytotoxicity in HEK293T NF-kB-Luc cells, SAR follow-up, cytotoxicity control for NF-kB activator project, cell-based, resazurin fluorescence (AID 493251); format: functional; conditions: Homo sapiens
Jurkat [11] = assay: SAR Analysis of small molecule inhibitors of […] specific antigen receptor-induced NF-kB activation in a Jurkat cell line using a luminescence assay - Set 3. [Related pubchem assays (depositor defined):AID435022, AID435025, AID465]; format: functional, cell-based; conditions: Homo sapiens
HEK293 [12] = assay: SAR Analysis of small molecule inhibitors of B-cell specific antigen receptor-induced NF-kB activation in a HEK-293T cell line using a luminescence assay - Set 2. [Related pubchem assays (depositor defined):AID435022, AID435025, AID489021]; format: functional, cell-based; conditions: Homo sapiens
[13] = target: Melanin-concentrating hormone receptor 1 (Homo sapiens, UniProt Q99705); assay: Late-stage fluorescence-based counterscreen for antagonists of the G-protein coupled receptor 7 (GPR7): cell-based dose response assay to identify antagonists of the melanin-concentrating hormone receptor 1 (MCHR1) Set 5.; format: functional
[14] = target: T4, Neuropeptides B/W receptor type 1 (Homo sapiens, UniProt P48145); assay: GPR7 antagonist potency, late-stage follow-up, cell-based, fluorescence, dose response, set 5 (AID 588566); format: functional
T4 sequence (P48145 whole entry): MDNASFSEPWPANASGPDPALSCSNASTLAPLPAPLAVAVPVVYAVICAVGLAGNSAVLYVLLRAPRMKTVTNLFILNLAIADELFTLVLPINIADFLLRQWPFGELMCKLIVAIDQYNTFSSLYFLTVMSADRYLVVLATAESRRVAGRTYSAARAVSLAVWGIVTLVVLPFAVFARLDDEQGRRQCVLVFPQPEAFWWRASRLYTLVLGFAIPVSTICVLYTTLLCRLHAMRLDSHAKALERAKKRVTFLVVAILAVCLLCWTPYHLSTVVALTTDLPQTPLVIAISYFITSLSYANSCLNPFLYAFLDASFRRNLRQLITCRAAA

[15] = control 3'UTR Renilla luciferase suppression, dose response, counter-screen for Shn3 inhibitor project, cell-based, Clone20-Shn3RL, cherry-picked (AID 624133); format: functional
[16] = target: T5, ATP-dependent translocase ABCB1 (Homo sapiens, UniProt P08183); assay: ABCB1 efflux inhibitor potency, dose response, Jurkat-DNR cells, JC-1, flow cytometry, set 2 (AID 504569); format: functional; conditions: read-out: EC50_MICROM_;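 also: potency of pump inhibitors that raise cellular JC-1 green fluorescence up to the nicardipine level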
[17] = HepG2 cell cytotoxicity, dose response, cytotoxicity control for Shn3 inhibitor project, CellTiter-Glo, cherry-picked (AID 624134); format: functional, cell-based
[18] = Shn3 3'UTR reporter inhibitors, dose response, cell-based, Clone20 osteoblasts, firefly luciferase, cherry-picked (AID 624132); format: functional;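 also: firefly luciferase luminescence from reporter carrying the Shn3 3'UTR in osteoblasts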
[19] = target: T5, ATP-dependent translocase ABCB1; assay: ABCG2 efflux pump inhibitor potency, dose response, Ig-MXP3 cells, JC-1, flow cytometry, set 2 (AID 504566); format: functional; conditions: read-out: EC50_MICROM_;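 also: flow cytometry median green fluorescence of retained JC-1 dye; potency of efflux pump inhibition measured as rising substrate retention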

T3 sequence (P11940 whole entry): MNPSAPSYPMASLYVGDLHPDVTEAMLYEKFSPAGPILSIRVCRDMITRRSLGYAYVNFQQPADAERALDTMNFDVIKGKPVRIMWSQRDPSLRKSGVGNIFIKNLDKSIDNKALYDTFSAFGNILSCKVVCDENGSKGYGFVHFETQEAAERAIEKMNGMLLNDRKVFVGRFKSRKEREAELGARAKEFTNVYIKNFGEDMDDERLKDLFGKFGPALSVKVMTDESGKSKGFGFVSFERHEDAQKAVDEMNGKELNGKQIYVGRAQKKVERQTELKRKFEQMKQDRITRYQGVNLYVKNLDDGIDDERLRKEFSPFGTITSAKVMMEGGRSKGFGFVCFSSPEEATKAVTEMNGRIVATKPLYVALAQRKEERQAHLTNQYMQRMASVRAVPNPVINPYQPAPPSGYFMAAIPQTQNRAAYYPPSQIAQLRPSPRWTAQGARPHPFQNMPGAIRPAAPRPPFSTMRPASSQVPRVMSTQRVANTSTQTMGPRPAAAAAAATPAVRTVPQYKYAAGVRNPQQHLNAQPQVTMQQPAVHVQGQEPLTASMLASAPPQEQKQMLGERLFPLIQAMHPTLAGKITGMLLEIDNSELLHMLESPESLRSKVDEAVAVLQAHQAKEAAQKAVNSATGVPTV
Chain of Melanin-concentrating hormone receptor 1 (Q99705 whole entry): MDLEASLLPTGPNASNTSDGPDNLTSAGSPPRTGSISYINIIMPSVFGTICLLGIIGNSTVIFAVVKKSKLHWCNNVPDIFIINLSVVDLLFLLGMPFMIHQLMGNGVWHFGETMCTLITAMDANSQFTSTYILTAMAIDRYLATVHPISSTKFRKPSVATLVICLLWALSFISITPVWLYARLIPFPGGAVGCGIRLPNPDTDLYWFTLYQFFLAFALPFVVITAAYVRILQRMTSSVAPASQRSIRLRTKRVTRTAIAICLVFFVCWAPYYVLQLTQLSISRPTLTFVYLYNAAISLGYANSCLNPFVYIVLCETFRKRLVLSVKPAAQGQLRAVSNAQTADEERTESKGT
T5 sequence (P08183 whole entry): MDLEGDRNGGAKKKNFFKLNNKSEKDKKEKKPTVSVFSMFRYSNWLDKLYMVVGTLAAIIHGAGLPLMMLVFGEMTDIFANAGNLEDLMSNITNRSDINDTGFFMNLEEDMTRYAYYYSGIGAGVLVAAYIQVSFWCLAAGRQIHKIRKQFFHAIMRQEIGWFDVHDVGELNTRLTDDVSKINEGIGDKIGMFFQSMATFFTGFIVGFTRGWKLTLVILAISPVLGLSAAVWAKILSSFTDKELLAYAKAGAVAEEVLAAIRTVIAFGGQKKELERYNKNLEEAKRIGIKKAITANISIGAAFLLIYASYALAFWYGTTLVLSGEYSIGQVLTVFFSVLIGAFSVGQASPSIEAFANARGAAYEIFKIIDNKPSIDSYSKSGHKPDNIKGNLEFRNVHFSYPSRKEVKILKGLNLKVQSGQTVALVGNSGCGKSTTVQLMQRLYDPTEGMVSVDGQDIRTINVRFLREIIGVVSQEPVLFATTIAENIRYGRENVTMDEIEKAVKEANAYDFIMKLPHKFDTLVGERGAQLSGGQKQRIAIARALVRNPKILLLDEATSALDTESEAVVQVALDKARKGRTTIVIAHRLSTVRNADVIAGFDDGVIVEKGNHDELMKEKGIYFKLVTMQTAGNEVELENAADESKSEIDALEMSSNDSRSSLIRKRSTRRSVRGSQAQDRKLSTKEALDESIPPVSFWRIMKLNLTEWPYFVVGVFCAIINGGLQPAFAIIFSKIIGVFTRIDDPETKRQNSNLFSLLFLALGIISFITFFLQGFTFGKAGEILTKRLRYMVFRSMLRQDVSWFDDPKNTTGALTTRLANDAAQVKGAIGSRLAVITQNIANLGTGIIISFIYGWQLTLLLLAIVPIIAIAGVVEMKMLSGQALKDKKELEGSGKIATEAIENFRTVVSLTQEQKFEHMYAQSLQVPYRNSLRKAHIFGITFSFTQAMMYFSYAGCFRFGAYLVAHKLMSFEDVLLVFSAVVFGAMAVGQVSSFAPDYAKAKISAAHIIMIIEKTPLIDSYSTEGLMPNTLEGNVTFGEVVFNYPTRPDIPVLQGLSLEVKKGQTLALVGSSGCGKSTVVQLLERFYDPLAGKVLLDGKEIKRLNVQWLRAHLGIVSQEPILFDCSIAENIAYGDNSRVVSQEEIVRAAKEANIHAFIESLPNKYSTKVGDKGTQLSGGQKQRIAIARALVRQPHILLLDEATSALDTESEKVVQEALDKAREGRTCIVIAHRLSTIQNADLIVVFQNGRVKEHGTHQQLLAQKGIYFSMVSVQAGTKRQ
Chain of Latent membrane protein 1 (P03230 whole entry): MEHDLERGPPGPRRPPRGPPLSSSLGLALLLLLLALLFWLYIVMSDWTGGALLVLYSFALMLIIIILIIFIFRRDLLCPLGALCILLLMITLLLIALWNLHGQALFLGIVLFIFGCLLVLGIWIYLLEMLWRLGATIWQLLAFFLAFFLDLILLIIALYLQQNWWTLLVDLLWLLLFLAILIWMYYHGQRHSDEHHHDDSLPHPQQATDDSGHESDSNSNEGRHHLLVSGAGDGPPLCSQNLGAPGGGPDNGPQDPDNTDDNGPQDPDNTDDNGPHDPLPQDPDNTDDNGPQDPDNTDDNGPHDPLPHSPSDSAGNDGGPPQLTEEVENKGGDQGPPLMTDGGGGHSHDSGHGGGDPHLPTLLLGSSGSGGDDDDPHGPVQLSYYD

## Cc1c(NC(=O)C2CC(c3ccc(F)cc3)=NO2)c(=O)n(-c2ccccc2)n1C (stereo not drawn)
[1]
  EC50: > 195 µM (not active)
[2]
  EC50: > 100 µM (inactive)

## CN1C(=O)N(C)c2ccc(C=O)c3cccc1c23
[3]
  IC50: 37.9 µM (inactive)
[4]
  AC50: 0.774 µM (active)
HEK293 [5]
  AC50: 6.36 µM (active)
cells
  IC50: 31.1 µM (active)
[6]
  CC50: 24.6 µM (active)
[7]
  IC50: 58.8 µM (inactive)

## COc1ccc(C(=O)Nc2ccc(NC(=O)c3cc4ccccc4o3)cc2)cc1[N+](=O)[O-]
HEK293 [8]
  IC50: > 80 µM (inactive)
Jurkat [9]
  IC50: 76.7 µM (inactive)
HEK293 [10]
  IC50: > 80 µM (inactive)

## CCOc1ccc(-c2nc(CSCC(=O)NCCc3ccc(Cl)cc3)c(C)o2)cc1
Jurkat [11]
  IC50: 63.8 µM (inactive)
HEK293 [12]
  IC50: > 80 µM (inactive)
HEK293 [10]
  IC50: > 80 µM (inactive)

## Cc1ccc(C(C#N)c2c(Cl)cnn(Cc3cccc4ccccc34)c2=O)cc1 (stereo not drawn)
[13]
  IC50: 1.24 µM (active)
[14]
  IC50: 0.381 µM (active)

## CCOc1ccc(Oc2c(N3CCCC3)c(Br)nn(Cc3cccc4ccccc34)c2=O)cc1
[13]
  IC50: > 20 µM (inactive)
[14]
  IC50: > 20 µM (inactive)

## COc1cccc(-c2cc(N3CCN(C(=O)c4ccoc4)CC3)n3nc(-c4cccc(Cl)c4)cc3n2)c1
[15]
  AC50: > 70 µM (inactive)
[16]
  EC50: 2.89 µM (active)
[17]
  AC50: 49 µM (active)
[18]
  AC50: 6.22 µM (active)
[19]
  EC50: 0.76 µM (active)
